Experimental data: patent US11629171B2, “Beta-hairpin peptidomimetics” (POLYPHOR AG, priority 2017, dated 2023)
≈ marks a conversion by molar mass, not a printed value. Where a SMILES comes first, the peptide text is derived from it. Bridges are numbered along the chain shown (N, C = ends). Roman numbers before positions name the chains, in order. [ ]: non-standard residue; d: D form. Pen = CC(C)(S)[C@H](N)C(=O)O; Tle = CC(C)(C)[C@H](N)C(=O)O; NMeV = CN[C@H](C(=O)O)C(C)C; dDab = NCC[C@@H](N)C(=O)O; hSer = N[C@@H](CCO)C(=O)O; Dab = NCC[C@H](N)C(=O)O; Dap = NC[C@H](N)C(=O)O

Tests used:
Format in all cases: cell-based
[1] = system: Acinetobacter baumannii 872842; conditions: 872842
How it was run: (§1)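 MIC in μg/mL, read as absence of visible growth after 18-20 h incubation at 35° C, by standard CLSI microdilution. Peptides tested in two-fold serial dilution in cation-adjusted MH-II broth containing 0.002% (final) Polysorbate 80, against roughly 10^6 CFU/mL inocula.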

[2] = system: Acinetobacter baumannii DSM 30008; conditions: DSM 30008
How it was run: as §1

[3] = system: Enterobacter cloacae 848840; conditions: 848840
How it was run: as §1

Escherichia coli 926415 = conditions: 926415
How it was run: as §1

[4] = system: Escherichia coli ATCC 25922; conditions: ATCC 25922
How it was run: as §1

[5] = system: Klebsiella pneumoniae 968733; conditions: 968733
How it was run: as §1

[6] = system: Klebsiella pneumoniae SSI #3010; conditions: SSI #3010
How it was run: as §1

[7] = system: Pseudomonas aeruginosa ATCC 27853; conditions: ATCC 27853
How it was run: as §1

[8] = system: human red blood cells (hRBC); test: Hemolysis; conditions: red cells of human, 1 h, 200
How it was run: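 Hemoglobin release from PBS-washed hRBC at 20% (v/v), incubated 1 h at 37° C with peptides at 200 μg/mL, is measured at 540 nm. Values are blank corrected and given as a fraction of Triton X-100 lysis × 100%.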

Row | SMILES | MIC [1] [µg/mL] | MIC [2] [µg/mL] | MIC [3] [µg/mL] | MIC (Escherichia coli 926415) [µg/mL] | MIC [4] [µg/mL] | MIC [5] [µg/mL] | MIC [6] [µg/mL] | MIC [7] [µg/mL] | Hemolysis at 200 μg/mL [8] [%]
1 | CC(C)C[C@@H]1NC(=O)[C@@H](CC(C)C)NC(=O)[C@H](CCN)NC(=O)[C@@H](NC(=O)[C@H](CCN)NC(=O)[C@@H](NC(=O)[C@H](CCN)NC(=O)CC[C@@H]2NC(=O)[C@@H]3CSSC[C@H](NC(=O)[C@H](Cc4c[nH]c5ccccc45)NC(=O)[C@H](CCO)NC(=O)[C@@H](CCN)NC2=O)C(=O)N[C@@H](C(C)C)C(=O)N[C@H](C(=O)N[C@@H](CO)C(N)=O)CSSC[C@H](NC(=O)[C@@H](N)C(C)C)C(=O)N[C@@H](Cc2ccc(O)cc2)C(=O)N3)[C@@H](C)O)CCNC(=O)[C@H]([C@@H](C)O)NC(=O)[C@H](CCN)NC(=O)[C@H](CCN)NC1=O [Ex. 176] (I: H-VCYCE[dDab][hSer]WCVCS-NH2 / II: [Dab]T[Dab][Dab][Dab][dL]L[Dab][Dab]T; disulfide I:2-I:11, I:4-I:9; amide I:5-II:N; lactam II:4-II:C) | 0.125 (≈ 0.052 µM) | 0.125 (≈ 0.052 µM) | 0.5 (≈ 0.208 µM) | 0.25 (≈ 0.104 µM) | 0.0625 (≈ 0.026 µM) | 0.25 (≈ 0.104 µM) | 0.125 (≈ 0.052 µM) | 0.125 (≈ 0.052 µM) | <1
2 | CN[C@H](C(=O)N[C@H]1CSSC[C@@H](C(=O)N[C@@H](CO)C(N)=O)NC(=O)[C@H](C(C)C)NC(=O)[C@@H]2CSSC[C@H](NC(=O)[C@H](Cc3ccc(O)cc3)NC1=O)C(=O)N[C@@H](CCC(=O)N[C@@H](CCN)C(=O)N[C@H](C(=O)N[C@@H](CCN)C(=O)N[C@H]1CCNC(=O)[C@H]([C@@H](C)O)NC(=O)[C@H](CCN)NC(=O)[C@H](CCN)NC(=O)[C@H](CC(C)C)NC(=O)[C@@H](CC(C)C)NC(=O)[C@H](CCN)NC1=O)[C@@H](C)O)C(=O)N[C@H](CCN)C(=O)N[C@@H](CCO)C(=O)N[C@@H](Cc1c[nH]c3ccccc13)C(=O)N2)C(C)C [Ex. 177] (I: H-[NMeV]CYCE[dDab][hSer]WCVCS-NH2 / II: [Dab]T[Dab][Dab][Dab][dL]L[Dab][Dab]T; disulfide I:2-I:11, I:4-I:9; amide I:5-II:N; lactam II:4-II:C) | 0.125 (≈ 0.0517 µM) | 0.0625 (≈ 0.0259 µM) | 1 (≈ 0.414 µM) | 0.25 (≈ 0.103 µM) | 0.0625 (≈ 0.0259 µM) | 0.5 (≈ 0.207 µM) | 0.25 (≈ 0.103 µM) | 0.125 (≈ 0.0517 µM) | <1
3 | CC(=O)N[C@H](C(=O)N[C@H](C(=O)N[C@@H](Cc1ccc(O)cc1)C(=O)N[C@H]1CSSC[C@@H](C(=O)N[C@H](C(=O)N[C@@H](C)C(=O)N[C@@H](CO)C(N)=O)C(C)(C)C)NC(=O)[C@H](Cc2c[nH]c3ccccc23)NC(=O)[C@H]([C@@H](C)O)NC(=O)[C@@H](CCN)NC(=O)[C@H](CCC(=O)N[C@@H](CCN)C(=O)N[C@H](C(=O)N[C@@H](CCN)C(=O)N[C@H]2CCNC(=O)[C@H]([C@@H](C)O)NC(=O)[C@H](CCN)NC(=O)[C@H](CCN)NC(=O)[C@H](CC(C)C)NC(=O)[C@@H](CC(C)C)NC(=O)[C@H](CCN)NC2=O)[C@@H](C)O)NC1=O)[C@@H](C)O)C(C)C [Ex. 178] (I: Ac-VTYCE[dDab]TWC[Tle]AS-NH2 / II: [Dab]T[Dab][Dab][Dab][dL]L[Dab][Dab]T; disulfide I:4-I:9; amide I:5-II:N; lactam II:4-II:C) | 0.25 (≈ 0.103 µM) | 0.0625 (≈ 0.0258 µM) | 0.25 (≈ 0.103 µM) | 0.5 (≈ 0.206 µM) | 0.125 (≈ 0.0515 µM) | 2 (≈ 0.824 µM) | 0.125 (≈ 0.0515 µM) | 0.125 (≈ 0.0515 µM) | <1
4 | CC(=O)N[C@H](C(=O)N[C@@H](CN)C(=O)N[C@@H](Cc1ccc(O)cc1)C(=O)N[C@H]1CSSC[C@@H](C(=O)N[C@H](C(=O)N[C@@H](C)C(=O)N[C@@H](CO)C(N)=O)C(C)(C)C)NC(=O)[C@H](Cc2c[nH]c3ccccc23)NC(=O)[C@H]([C@@H](C)O)NC(=O)[C@@H](CCN)NC(=O)[C@H](CCC(=O)N[C@@H](CCN)C(=O)N[C@H](C(=O)N[C@@H](CCN)C(=O)N[C@H]2CCNC(=O)[C@H]([C@@H](C)O)NC(=O)[C@H](CCN)NC(=O)[C@H](CCN)NC(=O)[C@H](CC(C)C)NC(=O)[C@@H](CC(C)C)NC(=O)[C@H](CCN)NC2=O)[C@@H](C)O)NC1=O)C(C)C [Ex. 179] (I: Ac-V[Dap]YCE[dDab]TWC[Tle]AS-NH2 / II: [Dab]T[Dab][Dab][Dab][dL]L[Dab][Dab]T; disulfide I:4-I:9; amide I:5-II:N; lactam II:4-II:C) | 0.25 (≈ 0.104 µM) | 0.0625 (≈ 0.0259 µM) | 0.5 (≈ 0.207 µM) | 0.5 (≈ 0.207 µM) | 0.125 (≈ 0.0518 µM) | 4 (≈ 1.66 µM) | 0.25 (≈ 0.104 µM) | 0.25 (≈ 0.104 µM) | <1
5 | CN[C@H](C(=O)N[C@@H](CN)C(=O)N[C@@H](Cc1ccc(O)cc1)C(=O)N[C@@H]1C(=O)N[C@@H](CCC(=O)N[C@@H](CCN)C(=O)N[C@H](C(=O)N[C@@H](CCN)C(=O)N[C@H]2CCNC(=O)[C@H]([C@@H](C)O)NC(=O)[C@H](CCN)NC(=O)[C@H](CCN)NC(=O)[C@H](CC(C)C)NC(=O)[C@@H](CC(C)C)NC(=O)[C@H](CCN)NC2=O)[C@@H](C)O)C(=O)N[C@H](CCN)C(=O)N[C@@H]([C@@H](C)O)C(=O)N[C@@H](Cc2c[nH]c3ccccc23)C(=O)N[C@H](C(=O)N[C@H](C(=O)N[C@@H](C)C(=O)N[C@@H](CO)C(N)=O)C(C)(C)C)CSSC1(C)C)C(C)C [Ex. 181] (I: H-[NMeV][Dap]Y[Pen]E[dDab]TWC[Tle]AS-NH2 / II: [Dab]T[Dab][Dab][Dab][dL]L[Dab][Dab]T; disulfide I:4-I:9; amide I:5-II:N; lactam II:4-II:C) | 2 (≈ 0.83 µM) | 0.25 (≈ 0.104 µM) | 1 (≈ 0.415 µM) | 2 (≈ 0.83 µM) | 0.25 (≈ 0.104 µM) | 8 (≈ 3.32 µM) | 0.5 (≈ 0.207 µM) | 0.5 (≈ 0.207 µM) | <1
6 | CC(C)C[C@@H]1NC(=O)[C@@H](CC(C)C)NC(=O)[C@H](CCN)NC(=O)[C@@H](NC(=O)[C@H](CCN)NC(=O)[C@@H](NC(=O)[C@H](CCN)NC(=O)CC[C@@H]2NC(=O)[C@@H](NC(=O)[C@H](Cc3ccc(O)cc3)NC(=O)[C@@H](NC(=O)[C@@H](N)C(C)C)[C@@H](C)O)CSSC[C@@H](C(=O)N[C@H](C(=O)N[C@@H](C)C(=O)N[C@@H](CO)C(N)=O)C(C)(C)C)NC(=O)[C@H](Cc3c[nH]c4ccccc34)NC(=O)[C@H]([C@@H](C)O)NC(=O)[C@@H](CCN)NC2=O)[C@@H](C)O)CCNC(=O)[C@H]([C@@H](C)O)NC(=O)[C@H](CCN)NC(=O)[C@H](CCN)NC1=O [Ex. 182] (I: H-VTYCE[dDab]TWC[Tle]AS-NH2 / II: [Dab]T[Dab][Dab][Dab][dL]L[Dab][Dab]T; disulfide I:4-I:9; amide I:5-II:N; lactam II:4-II:C) | 0.125 (≈ 0.0524 µM) | 0.0625 (≈ 0.0262 µM) | 0.125 (≈ 0.0524 µM) | 0.5 (≈ 0.21 µM) | 0.03125 (≈ 0.0131 µM) | 1 (≈ 0.419 µM) | 0.125 (≈ 0.0524 µM) | 0.125 (≈ 0.0524 µM) | <1
7 | CN[C@H](C(=O)N[C@H](C(=O)N[C@@H](Cc1ccc(O)cc1)C(=O)N[C@H]1CSSC[C@@H](C(=O)N[C@H](C(=O)N[C@@H](C)C(=O)N[C@@H](CO)C(N)=O)C(C)C)NC(=O)[C@H](Cc2c[nH]c3ccccc23)NC(=O)[C@H](CO)NC(=O)[C@@H](CCN)NC(=O)[C@H](CCC(=O)N[C@@H](CCN)C(=O)N[C@H](C(=O)N[C@@H](CCN)C(=O)N[C@H]2CCNC(=O)[C@H]([C@@H](C)O)NC(=O)[C@H](CCN)NC(=O)[C@H](CCN)NC(=O)[C@H](CC(C)C)NC(=O)[C@@H](CC(C)C)NC(=O)[C@H](CCN)NC2=O)[C@@H](C)O)NC1=O)[C@@H](C)O)C(C)C [Ex. 184] (I: H-[NMeV]TYCE[dDab]SWCVAS-NH2 / II: [Dab]T[Dab][Dab][Dab][dL]L[Dab][Dab]T; disulfide I:4-I:9; amide I:5-II:N; lactam II:4-II:C) | 1 (≈ 0.422 µM) | 0.125 (≈ 0.0527 µM) | 1 (≈ 0.422 µM) | 2 (≈ 0.844 µM) | 0.125 (≈ 0.0527 µM) | 8 (≈ 3.38 µM) | 0.25 (≈ 0.105 µM) | 0.25 (≈ 0.105 µM) | <1
8 | CN[C@H](C(=O)N[C@H](C(=O)N[C@@H](Cc1ccc(O)cc1)C(=O)N[C@H]1CSSC[C@@H](C(=O)N[C@H](C(=O)N[C@@H](C)C(=O)N[C@@H](CO)C(N)=O)C(C)(C)C)NC(=O)[C@H](Cc2c[nH]c3ccccc23)NC(=O)[C@H](CCO)NC(=O)[C@@H](CCN)NC(=O)[C@H](CCC(=O)N[C@@H](CCN)C(=O)N[C@H](C(=O)N[C@@H](CCN)C(=O)N[C@H]2CCNC(=O)[C@H]([C@@H](C)O)NC(=O)[C@H](CCN)NC(=O)[C@H](CCN)NC(=O)[C@H](CC(C)C)NC(=O)[C@@H](CC(C)C)NC(=O)[C@H](CCN)NC2=O)[C@@H](C)O)NC1=O)[C@@H](C)O)C(C)C [Ex. 185] (I: H-[NMeV]TYCE[dDab][hSer]WC[Tle]AS-NH2 / II: [Dab]T[Dab][Dab][Dab][dL]L[Dab][Dab]T; disulfide I:4-I:9; amide I:5-II:N; lactam II:4-II:C) | 0.25 (≈ 0.104 µM) | 0.125 (≈ 0.0521 µM) | 0.25 (≈ 0.104 µM) | 0.25 (≈ 0.104 µM) | 0.125 (≈ 0.0521 µM) | 1 (≈ 0.417 µM) | 0.125 (≈ 0.0521 µM) | 0.125 (≈ 0.0521 µM) | <1
